Source: US20240425589A1, “CYTOTOXICITY-INDUCING THERAPEUTIC AGENT FOR USE IN TREATMENT OF CANCER” (CHUGAI SEIYAKU KABUSHIKI KAISHA, priority 2021, published 2024)

Key:
[1] = system: CLDN6 expression in NIH:OVCAR-3; assay: CLDN6 expression by quantitative PCR after TGF-β1; type: cell-based, human; conditions: TGF-β1 10 ng/ml, 5 days, vs untreated
Description: Therefore, it was speculated that TGF-β1 induced by treatment with an anticancer agent may affect CLDN6 expression. Accordingly, analyzes were performed to determine whether […] induces CLDN6 expression in the human ovarian cancer cell line (NIH:OVCAR-3, ATCC). Regarding the NIH:OVCAR-3 cells seeded on culture plates, RNAs were purified (RNeasy Mini Kit, QIAGEN) from untreated cells or from cells collected 5 days after addition of TGF-β1 (R & D Systems, 10 ng/ml), and then cDNA synthesis (Superscript IV VILO Master Mix, ThermoFisher) was performed. By using the cDNAs as templates, real-time PCR was performed using CLDN6-specific primers (Power SYBR (registered trademark) Green Master Mix, ThermoFisher) to analyze CLDN6 expression (QuantStudio 12K Flex Real-Time PCR System, ThermoFisher).
The same primers as those in the above-mentioned Example 21.1 were used as the primers for human CLDN6 and for the primers for human GAPDH used as the internal control.

[2] = system: CLDN6 expression in NIH:OVCAR-3, COV413A, COV413B, COV362; assay: CLDN6 expression by FACS after TGF-β1; type: cell-based, human; conditions: TGF-β1 10 ng/mL, four days, vs untreated
Description: Next, analyses were performed to determine whether TGF-β1 induces CLDN6 expression in other ovarian cancer cell lines. In addition to NIH:OVCAR-3 cells, COV413A cells (ECACC), COV413B (ECACC), and COV362 (ECACC) were seeded on culture plates, and TGF-β1 was added at 10 ng/mL. Four days later, cells were recovered, and CLDN6 expression was analyzed by FACS analysis.
In the FACS analysis, cells were detached from the culturing flask to produce a cell suspension, these cells were stained using an anti-CLDN6 antibody (CS4135 mIgG1: the heavy-chain and light-chain amino acid sequences are shown in SEQ ID NOs: 210 and 211, respectively, and the heavy-chain and light-chain nucleotide sequences are shown in SEQ ID NOs: 212 and 213, respectively) labeled with Alexa Flour 488 (Alexa Fluor 488 antibody labeling kit, ThermoFisher Scientific), and the amount of CLDN6 expression was analyzed using a flow cytometer (FACSlyric, BD Biosciences). The CS4135 mIgG1 antibody is a chimeric antibody produced by linking the Fc region of a mouse IgG1 to the Fab of the CS4135 antibody.

TGF-β1: TGF-β1 (R & D Systems) added to cells at 10 ng/ml
CLDN6 expression [1]: Increase in CLDN6 expression was observed
CLDN6 expression [2]: increased CLDN6 expression
